We go through two molecules from ChEMBL document CHEMBL5223131, “A first-in-class clinical G-quadruplex-targeting drug. The bench-to-bedside translation of the fluoroquinolone QQ58 to CX-5461 (Pidnarulex)” (Bioorg Med Chem Lett, 2022).

Active and inactive are the calls of the source. The calls are words filed in the database; no cut-off is given here.

Assay [1] concerns the target T1, DNA topoisomerase II (Homo sapiens) (UniProt P11388+Q02880). Description: Inhibition of human Top2 assessed as decrease in intensity of decatenated DNA using catenated KDNA at 0.5 to 10 uM. It is filed as protein assay. Particulars: dose 0.5-10 µM.
Assay [2] deals with T1, DNA topoisomerase II (Homo sapiens). Description: Inhibition of human Top2 assessed as decrease in enzyme mediated DNA cleavage at site A at low concentration. The format is protein assay.
Assay [3] shares this target. Description: Inhibition of human Top2 assessed as decrease in enzyme mediated DNA cleavage at site A at high concentration. It is filed as protein assay.
In assay [4] the target is DNA topoisomerase 2-alpha (Homo sapiens) (UniProt P11388). As to the kind of experiment: Inhibition of human Top2 assessed as decrease in intensity of decatenated DNA using catenated KDNA at 2 to 50 uM. Particulars: dose 2-50 µM.
Assay [5] concerns the target T1, DNA topoisomerase II (Homo sapiens). Description: Inhibition of human Top2 assessed as decrease in enzyme mediated DNA cleavage at site A at 0.5 to 10 uM. It is filed as protein assay. Particulars: dose 0.5-10 µM.

Sequence of DNA topoisomerase 2-alpha (Homo sapiens) (P11388 whole entry): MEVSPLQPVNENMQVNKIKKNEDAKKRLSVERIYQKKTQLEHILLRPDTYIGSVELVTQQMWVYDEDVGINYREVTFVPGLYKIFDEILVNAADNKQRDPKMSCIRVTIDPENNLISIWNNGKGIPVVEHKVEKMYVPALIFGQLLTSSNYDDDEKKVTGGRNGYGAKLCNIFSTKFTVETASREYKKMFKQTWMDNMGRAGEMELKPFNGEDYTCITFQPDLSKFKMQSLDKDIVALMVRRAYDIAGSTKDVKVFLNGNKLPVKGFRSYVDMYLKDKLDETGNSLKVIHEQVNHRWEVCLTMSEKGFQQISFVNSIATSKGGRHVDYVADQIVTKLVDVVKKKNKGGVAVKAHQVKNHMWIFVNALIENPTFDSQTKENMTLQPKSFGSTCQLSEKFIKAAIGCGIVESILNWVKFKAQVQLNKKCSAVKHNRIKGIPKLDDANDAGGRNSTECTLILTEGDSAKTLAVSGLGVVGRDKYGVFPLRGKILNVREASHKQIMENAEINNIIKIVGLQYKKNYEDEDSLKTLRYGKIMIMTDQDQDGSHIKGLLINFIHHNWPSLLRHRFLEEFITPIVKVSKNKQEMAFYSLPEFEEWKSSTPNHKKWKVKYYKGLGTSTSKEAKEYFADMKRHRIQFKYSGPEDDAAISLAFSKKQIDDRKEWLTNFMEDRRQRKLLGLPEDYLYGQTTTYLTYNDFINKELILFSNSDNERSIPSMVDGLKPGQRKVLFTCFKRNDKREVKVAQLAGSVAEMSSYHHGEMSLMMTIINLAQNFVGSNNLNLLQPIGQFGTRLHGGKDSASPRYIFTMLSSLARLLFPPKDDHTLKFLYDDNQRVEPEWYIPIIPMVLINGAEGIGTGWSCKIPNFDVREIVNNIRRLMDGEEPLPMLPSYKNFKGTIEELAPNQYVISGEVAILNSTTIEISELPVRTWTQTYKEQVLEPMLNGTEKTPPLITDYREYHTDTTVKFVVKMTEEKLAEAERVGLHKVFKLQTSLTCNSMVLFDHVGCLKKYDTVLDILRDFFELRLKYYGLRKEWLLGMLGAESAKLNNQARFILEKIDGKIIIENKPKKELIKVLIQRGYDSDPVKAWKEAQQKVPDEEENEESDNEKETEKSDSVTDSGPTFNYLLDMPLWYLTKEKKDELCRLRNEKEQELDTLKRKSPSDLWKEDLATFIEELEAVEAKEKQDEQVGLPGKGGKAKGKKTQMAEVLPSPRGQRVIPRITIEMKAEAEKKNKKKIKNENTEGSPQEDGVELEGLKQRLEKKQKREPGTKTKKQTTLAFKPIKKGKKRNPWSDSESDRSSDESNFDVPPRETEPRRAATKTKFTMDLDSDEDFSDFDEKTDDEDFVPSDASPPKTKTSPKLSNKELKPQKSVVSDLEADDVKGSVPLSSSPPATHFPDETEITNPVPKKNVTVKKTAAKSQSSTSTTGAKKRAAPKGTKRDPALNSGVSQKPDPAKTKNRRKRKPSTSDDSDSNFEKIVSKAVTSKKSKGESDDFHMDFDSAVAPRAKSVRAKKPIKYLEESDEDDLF

Take `N[C@H]1CCN(c2c(F)cc3c(=O)c(C(=O)O)cn4c3c2Oc2ccccc2-4)C1`: the outcome in assay [1] and in assay [2] was Active. In assay [3], the result was inactive.
As to `N[C@H]1CCN(c2c(F)cc3c(=O)c(C(=O)O)cn4c3c2Oc2cc3c(cc2-4)oc2ccccc23)C1`, in assay [4], the fold change (FC) was found to be 5. In addition, the result in assay [5] was Active.
